Several values for one entry are separate records, joined by “and”; a condition that tells them apart may be missing. Equal values may be shown once.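 All cell lines were grown in 96-well plates and treated with compound for 48 hours. Abbreviation: GI50, concentration required for 50% inhibition of growth. TGI marks complete inhibition of growth.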
Key:
Experiment in all cases: NCI tumour cell line growth inhibition, 48 h
786-0 renal = tested on: 786-0 renal
A498 renal = tested on: A498 renal
A549 NSCLC = tested on: A549 NSCLC
ACHN renal = tested on: ACHN renal
BT-549 breast = tested on: BT-549 breast
CCRF-CEM leukemia = tested on: CCRF-CEM leukemia
COLO 205 colon = tested on: COLO 205 colon
DLD-1 colon = tested on: DLD-1 colon
DMS 114 small cell lung = tested on: DMS 114 small cell lung
DMS 273 small cell lung = tested on: DMS 273 small cell lung
EKVX NSCLC = tested on: EKVX NSCLC
HCC-2998 colon = tested on: HCC-2998 colon
HCT-15 colon = tested on: HCT-15 colon
HL-60(TB) leukemia = tested on: HL-60(TB) leukemia
HOP-18 NSCLC = tested on: HOP-18 NSCLC
HOP-92 NSCLC = tested on: HOP-92 NSCLC
HS 578T breast = tested on: HS 578T breast
HT29 colon = tested on: HT29 colon
IGROV1 ovarian = tested on: IGROV1 ovarian
K-562 leukemia = tested on: K-562 leukemia
KM12 colon = tested on: KM12 colon
KM20L2 colon = tested on: KM20L2 colon
LOX IMVI melanoma = tested on: LOX IMVI melanoma
M14 melanoma = tested on: M14 melanoma
MALME-3M melanoma = tested on: MALME-3M melanoma
MCF7 breast = tested on: MCF7 breast
MDA-MB-231 breast = tested on: MDA-MB-231 breast
MDA-MB-435 = tested on: MDA-MB-435
MDA-N = tested on: MDA-N
MOLT-4 leukemia = tested on: MOLT-4 leukemia
NCI-H226 lung = tested on: NCI-H226 lung
NCI-H460 lung = tested on: NCI-H460 lung
NCI-H522 lung = tested on: NCI-H522 lung
OVCAR-3 ovarian = tested on: OVCAR-3 ovarian
P388 leukemia = tested on: P388 leukemia
P388/ADR leukemia = tested on: P388/ADR leukemia
RXF 393 renal = tested on: RXF 393 renal
SF-268 CNS = tested on: SF-268 CNS
SK-MEL-2 melanoma = tested on: SK-MEL-2 melanoma
SK-MEL-5 melanoma = tested on: SK-MEL-5 melanoma
SK-OV-3 ovarian = tested on: SK-OV-3 ovarian
SN12C renal = tested on: SN12C renal
SN12K1 renal = tested on: SN12K1 renal
SNB-19 CNS = tested on: SNB-19 CNS
SNB-75 CNS = tested on: SNB-75 CNS
SR leukemia = tested on: SR leukemia
SW-620 colon = tested on: SW-620 colon
T-47D breast = tested on: T-47D breast
TK-10 renal = tested on: TK-10 renal
U251 CNS = tested on: U251 CNS
UACC-257 melanoma = tested on: UACC-257 melanoma
XF 498 CNS = tested on: XF 498 CNS

O=CC(NC(=O)N(CCCl)N=O)C(O)C(O)C(O)CO (stereo not given)
TGI (786-0 renal): 593 µM | GI50 (A498 renal): > 1250 µM | TGI (A498 renal): > 1250 µM | GI50 (A549 NSCLC): 162 µM and 584 µM | TGI (A549 NSCLC): 625 µM and > 1250 µM | TGI (ACHN renal): > 1250 µM | TGI (BT-549 breast): > 1250 µM | GI50 (CCRF-CEM leukemia): 207 µM and 515 µM | TGI (CCRF-CEM leukemia): 625 µM and > 1250 µM | GI50 (COLO 205 colon): > 625 µM | TGI (COLO 205 colon): > 1250 µM | GI50 (DLD-1 colon): > 625 µM | TGI (DLD-1 colon): > 1250 µM | GI50 (DMS 114 small cell lung): 218 µM and > 1250 µM | TGI (DMS 114 small cell lung): 625 µM and > 1250 µM | GI50 (DMS 273 small cell lung): 218 µM and > 1250 µM | TGI (DMS 273 small cell lung): 625 µM and > 1250 µM and > 1210 µM | GI50 (EKVX NSCLC): > 625 µM | TGI (EKVX NSCLC): > 1250 µM | GI50 (HCC-2998 colon): > 625 µM | TGI (HCC-2998 colon): > 1250 µM | GI50 (HCT-15 colon): > 625 µM | TGI (HCT-15 colon): > 1250 µM | GI50 (HL-60(TB) leukemia): 144 µM and 420 µM | TGI (HL-60(TB) leukemia): 625 µM and > 1250 µM and 1070 µM | GI50 (HOP-18 NSCLC): > 625 µM | TGI (HOP-18 NSCLC): > 1250 µM | GI50 (HOP-92 NSCLC): 377 µM and > 1250 µM and 362 µM | TGI (HOP-92 NSCLC): 625 µM and > 1250 µM and > 1230 µM | TGI (HS 578T breast): > 1250 µM | GI50 (HT29 colon): > 625 µM | TGI (HT29 colon): > 1250 µM | GI50 (IGROV1 ovarian): 460 µM and > 1250 µM | TGI (IGROV1 ovarian): 625 µM and > 1250 µM | GI50 (K-562 leukemia): > 198 µM and 1040 µM | TGI (K-562 leukemia): > 1250 µM | GI50 (KM12 colon): 541 µM | TGI (KM12 colon): 625 µM and > 1250 µM | GI50 (KM20L2 colon): > 625 µM | TGI (KM20L2 colon): > 1250 µM | GI50 (LOX IMVI melanoma): 50 µM and 303 µM and 78.7 µM | TGI (LOX IMVI melanoma): 384 µM and > 1250 µM and 661 µM | TGI (M14 melanoma): > 1250 µM | GI50 (MALME-3M melanoma): 131 µM | TGI (MALME-3M melanoma): 543 µM and 767 µM | GI50 (MCF7 breast): 485 µM | TGI (MCF7 breast): 625 µM and > 1250 µM | TGI (MDA-MB-231 breast): > 1250 µM | TGI (MDA-MB-435): > 1250 µM | TGI (MDA-N): > 1220 µM | GI50 (MOLT-4 leukemia): 104 µM | TGI (MOLT-4 leukemia): 625 µM and > 1060 µM | GI50 (NCI-H226 lung): 73.1 µM | TGI (NCI-H226 lung): 625 µM and > 1250 µM | GI50 (NCI-H460 lung): 208 µM and 401 µM | TGI (NCI-H460 lung): 625 µM and > 1250 µM and > 1210 µM | GI50 (NCI-H522 lung): > 625 µM | TGI (NCI-H522 lung): > 1250 µM | GI50 (OVCAR-3 ovarian): > 625 µM | TGI (OVCAR-3 ovarian): > 1250 µM | TGI (P388 leukemia): > 1250 µM | GI50 (P388/ADR leukemia): 34.5 µM and 65 µM | TGI (P388/ADR leukemia): 360 µM and > 1250 µM | GI50 (RXF 393 renal): 417 µM | TGI (RXF 393 renal): 625 µM and > 1250 µM | GI50 (SF-268 CNS): 19.8 µM and 137 µM | GI50 (SK-MEL-2 melanoma): > 625 µM | TGI (SK-MEL-2 melanoma): > 1250 µM | GI50 (SK-MEL-5 melanoma): 161 µM | TGI (SK-MEL-5 melanoma): 625 µM and 647 µM | GI50 (SK-OV-3 ovarian): 279 µM | TGI (SK-OV-3 ovarian): 576 µM and > 1250 µM | GI50 (SN12C renal): 206 µM and > 1250 µM | TGI (SN12C renal): 625 µM and > 1250 µM | GI50 (SN12K1 renal): 133 µM and 290 µM | TGI (SN12K1 renal): 625 µM and > 1250 µM | GI50 (SNB-19 CNS): 62.6 µM and 384 µM | TGI (SNB-19 CNS): 625 µM and > 1250 µM | GI50 (SNB-75 CNS): 146 µM | TGI (SNB-75 CNS): 625 µM and 1050 µM | TGI (SR leukemia): > 623 µM | GI50 (SW-620 colon): 171 µM and > 1250 µM | TGI (SW-620 colon): 625 µM and > 1250 µM | TGI (T-47D breast): > 1250 µM | TGI (TK-10 renal): > 1250 µM | GI50 (U251 CNS): 69.2 µM and 105 µM | TGI (U251 CNS): 625 µM and > 1250 µM | GI50 (UACC-257 melanoma): > 625 µM | TGI (UACC-257 melanoma): > 1250 µM | TGI (XF 498 CNS): 415 µM and > 1250 µM

Source: PubChem BioAssay (NCI)
